Assay results published in patent publication US20250177376A1, “ALPHA 2 ADRENERGIC RECEPTOR BLOCKADE FOR THE TREATMENT OF C. DIFFICILE COLITIS” (University of Virginia Patent Foundation, priority 2022, published 2025).
Values joined by “and” are separate entries in the source; they are usually repeats but may differ in a detail not shown here. Equal values may be shown once. “Also recorded” adds a separate entry of the source. Where a name gives a salt, the structure may show the parent alone.

How the values were obtained:
[1] = tested on: C. difficile infection (CDI); assay: Mouse CDI model: survival, weight loss, clinical score; format: in vivo, mice; conditions: for clinical score versus ORA-PLUS vehicle: oral gavage days -1, 0, 1, scores at days 2-8
[2] = tested on: eosinophils, neutrophils, monocytes; assay: Infiltrating colonic immune cells in CDI mice by flow cytometry; conditions: for monocyte levels / neutrophil levels: 6-OHDA vs PBS/saline, desipramine vs 6-OHDA alone
Method: To determine whether the sympathetic nervous system was necessary for a mounting of the inflammatory response, the infiltrating immune cell response in 6-OHDA-treated mice was measured by flow cytometry.

cytokines = assay: Luminex 32-plex cytokine levels in cecal tissue of CDI mice; conditions: IL-2, IL-4, IL-10, IL-12 (p40, p70), IL-15, MIP-1a, MIP-1b, LIX, VEGF, IL-5, GM-CSF, M-CSF, G-CSF, Eotaxin, IL-1b, IL-6, LIF, IP-10, KC, MCP-1, MIP2, MIG, IFNγ, IL-1a, IL-9, TNFa
Method: The levels of numerous cytokines were tested in PBS-treated mice and mice administered 6-OHDA.

C. difficile [3] = assay: C. difficile counts (CFU) from cecal contents; format: in vivo; conditions: cecal contents at 18 hours post-infection
Method: C. difficile counts were quantified from cecal contents at 18 hours post-infection. Cecal contents were resuspended by mass in anaerobic PBS. […] Colony counts were made manually.

toxin A/B = assay: Toxin A/B ELISA of cecal contents; format: in vivo, C. difficile; conditions: cecal contents 2 days post-infection
Method: ADRA2A inhibition with RX 821002 was also tested for any affects on toxin A/B levels in mice. Briefly, […] in cecal contents of mice sacrificed 2 days post-infection was determined by a Toxin A/B ELISA from TECHLAB, Inc. (Catalog No. TL5025). Prior to the ELISA, cecal contents were resuspended in PBS by mass. The Toxin A/B ELISA was performed according to the manufacturer's instructions. Mice were treated with RX 821002 and toxin A/B levels in CDI cecal content were determined.

C. difficile [4] = assay: C. difficile colonization in cecal contents by GDH ELISA; format: in vivo; conditions: cecal contents 2 days post-infection
Method: CDI colonization levels were also determined in PBS-treated mice (negative control) and mice treated with RX 821002. Briefly, C. difficile colonization in cecal contents of mice sacrificed 2 days post-infection was determined by a GDH ELISA from […], Inc. (Blacksburg, Virginia, United States of America; Catalog No. TL5025). Prior to the ELISA, cecal contents were resuspended in PBS by mass. The GDH ELISA was performed according to the manufacturer's instructions.

[5] = CDI mouse model, 6-OHDA 80 mg/kg i.p., propranolol, SR 59230A, RX 821002 10 mg/kg i.p., nepicastat oral gavage

`CNCCCN1c2ccccc2CCc2ccccc21` [desipramine, 3-(10,11-dihydro-5H-dibenzo[b,f]azepin-5-yl)-N-methylpropan-1-amine] was tested, and the “effect on survival / CDI-induced mortality versus negative control” value ([1]; mouse, in vivo) was “prevented the protective effect of 6-OHDA on the incidence of mortality”, the monocyte levels [2] was “statistically significant elevation” and the neutrophil levels [2] was “negated this reduction”.
`NCCc1cc(O)c(O)cc1O` [6-OHDA, 6-hydroxydopamine] was tested, and the “effect on survival / CDI-induced mortality versus negative control” value ([1]; mouse, in vivo) was “strikingly ameliorated the incidence of mortality; also recorded: complete protection from death”, the “mice still alive through day 5 post-infection” value ([1]; mouse, in vivo) was 100% and the “weight loss versus control” value ([1]; mouse, in vivo) was “significantly (p<0.001) reduced; also recorded: strikingly ameliorated”. The “mice still alive at day 7 post-infection” value ([1]; mouse, in vivo, ip, 80 mg/kg) was 90% and 80%, the monocyte levels [2] was “not significantly reduced” and the neutrophil levels [2] was “significantly reduced; also recorded: less representative of the colonic immune cells”. The eosinophil levels ([2]; vs PBS/Saline) was “did not reach statistical significance”, the “cytokine levels versus PBS-treated mice” value (cytokines) was “statistically significantly reduced; also recorded: lower amounts of cytokines” and the “cytokine levels versus PBS-treated mice” value (cytokines; listed as 6-hydroxydopamine) was “block in pro-inflammatory cytokine response”.
For `COC(=O)[C@@H]1[C@H]2C[C@H]3c4[nH]c5ccccc5c4CCN3C[C@@H]2CC[C@@H]1O` [yohimbine, methyl(1S,15R,18S,19R,20S)-18-hydroxy-1,3,11,12,14,15,16,17,18,19,20,21-dodecahydroyohimban-19-carboxylate], the “effect on survival / CDI-induced mortality versus negative control” value [1, 5] was “statistically significant amelioration of CDI induced mortality”.
For `CCc1ccccc1OC[C@@H](O)CN[C@H]1CCCc2ccccc21` [SR 59230A, (2S)-1-(2-ethylphenoxy)-3-[[(1S)-1,2,3,4-tetrahydronaphthalen-1-yl]amino]propan-2-ol], the “effect on survival / CDI-induced mortality versus negative control” value [1, 5] was “increased the incidence of mortality; also recorded: exacerbated CDI disease progression” and the “mice dead prior to day 3 post-infection” value ([1]; CDI mouse model, SR 59230A 10 mg/kg i.p.) was 100%.
With `COC1(C2=NCCN2)COc2ccccc2O1` (centres unmarked) [RX 821002, 2-(3-methoxy-2H-1,4-benzodioxin-3-yl)-4,5-dihydro-1H-imidazole] the “C. difficile burden, colony-forming units (CFU)/mg/ml, versus PBS” value (C. difficile [3]) was “no difference”, the “effect on survival / CDI-induced mortality versus negative control” value [1, 5] was “statistically significant difference in percent survival; also recorded: drastically reduced; also recorded: ameliorated CDI induced mortality; also recorded: protection” and the “toxin A/B levels in CDI cecal content” value (toxin A/B) was “reduced”. The “CDI colonization (GDH ELISA) versus PBS” value (C. difficile [4]) was “no effect”.
With `NCc1c[nH]c(=S)n1[C@H]1CCc2c(F)cc(F)cc2C1` [nepicastat hydrochloride, 5-(Aminomethyl)-1-[(2S)-5,7-difluoro-1,2,3,4-tetrahydro-2-naphthalenyl]-1,3-dihydro-2H-imidazole-2-thione] the “effect on survival / CDI-induced mortality versus negative control” value [1, 5] was “protected against CDI-induced mortality; also recorded: significantly improved survival”, the “effect on survival / CDI-induced mortality versus negative control” value ([1]; CDI mouse model, 6-OHDA 80 mg/kg i.p., propranolol, SR 59230A, RX 821002 10 mg/kg i.p., nepicastat oral gavage, listed as nepicastat) was “greatly reduced the incidence of mortality” and the “clinical score versus ORA-PLUS vehicle” value ([1]; CDI mouse model) was “statistically significantly lower”. The “clinical score versus ORA-PLUS vehicle” value ([1]; CDI mouse model, listed as Nepicastat) was “significantly better clinical scores”.
